Experimental data: article PMC11356900, “Synthesis, Structural Properties and Biological Activities of Novel Hydrazones of 2-, 3-, 4-Iodobenzoic Acid” (Molecules, 2024)
In brackets after ≈: the same amount, converted by molar mass. Read-outs that look alike come from different tables or passages of the source.

How the values were obtained:
[1] = tested on: Candida albicans ATCC 10231; test: Broth microdilution MIC/MFC; assay type: cell-based
From the text: (§1) Procedures of in vitro antimicrobial assays are described in Supplementary Materials.
(§2) 2. Microbiology – in vitro antimicrobial activity assays […]
(§3) using the broth microdilution method according to the European Committee on Antimicrobial Susceptibility Testing (EUCAST) and Clinical and Laboratory Standards Institute guidelines against a panel of reference and clinical or saprophytic strains of mi croorganisms, including the Gram-positive bacteria: Staphylococcus aureus ATCC 43300 (Methi-cillin Resistant S. aureus – MRSA), Staphylococcus aureus ATCC 29213 (Methicillin Susceptible S. aureus – MSSA), Staph-ylococcus epidermidis ATCC 12228, Micrococcus luteus ATCC 10240, Bacillus subtilis ATCC 6633 and Bacillus cereus ATCC 10876), Gram-negative bacteria: Bordetella bronchiseptica ATCC 4617, Escherichia coli ATCC 25922, Klebsiella pneumoniae ATCC 13883, Proteus mirabilis ATCC 12453, Salmonella typhimurium ATCC 14028 and Pseudomonas aeruginosa ATCC 9027, and fungi belonging to yeasts: Candida albicans ATCC 10231, Candida albicans ATCC 2091, Candida parapsilosis ATCC 22019, Candida glabrata ATCC 90030 and Candida krusei ATCC 14243. The microorganisms belonging to ATCC originated from American Type Culture Collection, routinely used for the evaluation of antimicrobials. All the used microbial cultures were first subcultured on nutrient agar or Sabouraud agar at 35°C for 18-24 h or 30°C for 24-48 h for bacteria […]
(§4) The surface of Mueller-Hinton agar (for bacteria) and RPMI 1640 with MOPS (for fungi) were inoculated with the suspensions of bacterial or fungal species. Microbial suspensions were prepared in sterile saline with an optical density of McFarland standard scale 0.5. The samples containing the compounds were dissolved in dimethyl sulfoxide (DMSO).
(§5) Furthermore, the bacterial and fungal suspensions put onto the Petri dishes with solid media containing 2 mg/mL of the tested compounds followed were incubated at 37°C for 24h and 30°C for 48h for bacteria and fungi, respectively.
(§6) The inhibition of microbial growth was estimated comparing with a control culture prepared without any tested sam- […]
(§7) antifungal compounds, respectively.
(§8) Subsequently, MIC (Minimal Inhibitory Concentration) of the compounds was examined by the microdilution broth method, using their two-fold dilutions in Mueller-Hinton broth (for bacteria) and RPMI 1640 broth with MOPS (for fungi) prepared in the 96-well polystyrene plates. The final concentrations of the compounds ranged from 1000 to 0.488 µg/mL. Microbial suspensions were prepared in 0.85% NaCl with an optical density of 0.5 McFarland standard. Next each bacterial or fungal suspension was added per each well containing broth and various concentrations of the exam-ined compounds. After incubation, the MIC was assessed spectrophotometrically as the lowest concentration of the […]
(§9) Appropriate DMSO, growth and sterile controls were carried out. The medium with no tested substances was used as a control The MBC (Minimal Bactericidal Concentration) and MFC (Minimal Fungicidal Concentration) are defined as the lowest concentration of the compounds that is required to kill a particular bacterial or fungal species. The MBC/MFC was determined by removing the culture used for the MIC determination from each well and spotted onto the appro-priate agar medium. The plates were incubated under appropriate conditions for bacteria and fungi. The lowest com-pounds concentration with no visible growth observed was assessed as a bactericidal/fungicidal concentration. All the experiments were repeated three times and the representative data are presented.
(§10) 1. European Committee for Antimicrobial Susceptibility Testing (EUCAST) Determination of minimum inhibitory con-centrations (MICs) of antibacterial agents by broth dilution. EUCAST discussion document E. Dis 5.1. Clin. Microbiol.
(§11) 2. Clinical and Laboratory Standards Institute. Reference method for broth dilution antifungal susceptibility testing of […]

[2] = tested on: Candida albicans ATCC 2091; test: Broth microdilution MIC/MFC; assay type: cell-based
From the text: as §1, §2, §3, §4, §5, §6, §7, §8, §9, §10, §11

[3] = tested on: Candida glabrata ATCC 90030; test: Broth microdilution MIC/MFC; assay type: cell-based
From the text: as §1, §2, §3, §4, §5, §6, §7, §8, §9, §10, §11

[4] = tested on: Candida krusei ATCC 14243; test: Broth microdilution MIC/MFC; assay type: cell-based
From the text: as §1, §2, §3, §4, §5, §6, §7, §8, §9, §10, §11

[5] = tested on: Candida parapsilosis ATCC 22019; test: Broth microdilution MIC/MFC; assay type: cell-based
From the text: as §1, §2, §3, §4, §5, §6, §7, §8, §9, §10, §11

Gram-positive bacteria = test: Broth microdilution, summary over reference Gram-positive bacteria; assay type: cell-based; details: for antibacterial activity in words: reference Gram-positive bacteria / studied bacteria
From the text: as §1, §2, §3, §4, §5, §6, §7, §8, §9, §10, §11

Candida spp. = test: Broth microdilution, summary over reference yeasts; assay type: cell-based; details: for antifungal activity in words: reference yeasts from Candida spp.
From the text: as §1, §2, §3, §4, §5, §6, §7, §8, §9, §10, §11

[6] = tested on: Staphylococcus aureus ATCC 25923; test: Broth microdilution MIC/MBC; details: Staphylococcus aureus, ATCC25923
[7] = tested on: Staphylococcus aureus ATCC 29213; test: Broth microdilution MIC/MBC; details: ATCC29213
[8] = tested on: Staphylococcus aureus ATCC 43300; test: Broth microdilution MIC/MBC; details: ATCC43300 / MRSA
[9] = tested on: Staphylococcus epidermidis ATCC 12228; test: Broth microdilution MIC/MBC; details: ATCC12228
[10] = tested on: Micrococcus luteus ATCC 10240; test: Broth microdilution MIC/MBC; details: Micrococcus luteus, ATCC10240
[11] = tested on: Bacillus subtilis ATCC 6633; test: Broth microdilution MIC/MBC; details: ATCC6633
[12] = tested on: Bacillus cereus ATCC 10876; test: Broth microdilution MIC/MBC; details: Bacillus cereus, ATCC10876
[13] = Nakaseomyces glabratus, ATCC90030, read-out: MFC
[14] = Nakaseomyces glabratus, ATCC90030, read-out: MIC
[15] = Pichia kudriavzevii, ATCC14243, read-out: MIC
[16] = Lodderomyces parapsilosis, ATCC22019, read-out: MIC
[17] = range over the reference Candida spp. strains

SMILES	MFC ([1]; ATCC10231, read-out: MFC)	MIC ([1]; ATCC10231, read-out: MIC)	MIC ([2]; ATCC2091, read-out: MIC)	MFC [3, 13]	MIC [3, 14]	MIC [4, 15]	MIC [5, 16]	antibacterial activity in words (Gram-positive bacteria)	antifungal activity in words (Candida spp.)	melting point	MIC [6]	MIC [7]	MIC [8]	MIC [9]	MIC [10]	MIC [11]	MIC [12]	also measured
O=C(N/N=C/c1cc(O)ccc1O)c1ccccc1I [Compound 11, N-[(2,5-dihydroxyphenyl)methylidene]-2-iodobenzohydrazide]	> 1000 µg/mL	1000 µg/mL (≈ 2620 µM)	> 1000 µg/mL	> 1000 µg/mL	1000 µg/mL (≈ 2620 µM)	> 1000 µg/mL	> 1000 µg/mL	no antimicrobial effect	mild activity or were inactive	211 to 214 °C	> 1000 µg/mL	> 1000 µg/mL	> 1000 µg/mL	> 1000 µg/mL	> 1000 µg/mL	> 1000 µg/mL	> 1000 µg/mL	–
O=C(N/N=C/c1cc(Cl)cc(I)c1O)c1ccccc1I [Compound 12, N-[(5-chloro-2-hydroxy-3-iodophenyl)methylidene]-2-iodobenzohydrazide]	> 1000 µg/mL	500 µg/mL (≈ 950 µM)	500 µg/mL (≈ 950 µM)	> 1000 µg/mL	250 µg/mL (≈ 475 µM)	500 µg/mL (≈ 950 µM)	1000 µg/mL (≈ 1900 µM)	–	moderate or mild	215 to 220 °C	125 µg/mL (≈ 237 µM)	1000 µg/mL (≈ 1900 µM)	1000 µg/mL (≈ 1900 µM)	250 µg/mL (≈ 475 µM)	31.2 µg/mL (≈ 59.4 µM)	1000 µg/mL (≈ 1900 µM)	500 µg/mL (≈ 950 µM)	MFC ([2]; ATCC2091, read-out: MFC): > 1000 µg/mL; MFC ([4]; Pichia kudriavzevii, ATCC14243, read-out: MFC): > 1000 µg/mL; MFC ([5]; Lodderomyces parapsilosis, ATCC22019, read-out: MFC): > 1000 µg/mL; MIC (Gram-positive bacteria; range over the reference Gram-positive bacteria, read-out: MIC): 31.2 to 1000 µg/mL (≈ 59.4 to 1900 µM); MFC (Candida spp.; [17]): ≥ 1000 µg/mL; MIC (Candida spp.; [17]): 250 to 1000 µg/mL (≈ 475 to 1900 µM); MBC [6]: > 1000 µg/mL; MBC [7]: > 1000 µg/mL; MBC [8]: > 1000 µg/mL; MBC [9]: 500 µg/mL (≈ 950 µM); MBC [10]: 250 µg/mL (≈ 475 µM); MBC [11]: > 1000 µg/mL; MBC [12]: > 1000 µg/mL
O=C(N/N=C/c1ccccc1O)c1cccc(I)c1 [Compound 16, N-[(2-hydroxyphenyl)methylidene]-3-iodobenzohydrazide]	–	–	–	–	–	–	–	no activity	–	201 to 203 °C	–	–	–	–	–	–	–	–
O=C(N/N=C/c1cccc([N+](=O)[O-])c1O)c1ccc(I)cc1 [Compound 22, N-[(2-hydroxy-3-nitrophenyl)methylidene]-4-iodobenzohydrazide]	–	–	–	–	–	–	–	No antimicrobial effect	no antifungal activity	198 to 202 °C	–	–	–	–	–	–	–	–
C[C@@H]1[C@H](O)[C@@H](C)/C=C/C=C/CC/C=C/C=C/C=C/C=C/C(O[C@H]2O[C@H](C)[C@@H](O)[C@H](N)[C@@H]2O)CC2O[C@](O)(CC(O)C(O)CCC(O)CC(O)CC(O)CC(=O)O[C@H]1C)CC(O)C2C(=O)O (stereo partly drawn) [NY*, nystatin, reference compound]	–	–	–	–	–	–	–	–	–	–	–	–	–	–	–	–	–	MFC [1]: 0.48 µg/mL (≈ 0.518 µM); MFC/MIC [1]: 1; MIC [1]: 0.48 µg/mL (≈ 0.518 µM); MFC [2]: 0.24 µg/mL (≈ 0.259 µM); MFC/MIC [2]: 1; MIC [2]: 0.24 µg/mL (≈ 0.259 µM); MFC [3]: 0.48 µg/mL (≈ 0.518 µM); MFC/MIC [3]: 2; MIC [3]: 0.24 µg/mL (≈ 0.259 µM); MFC [4]: 0.24 µg/mL (≈ 0.259 µM); MFC/MIC [4]: 1; MIC [4]: 0.24 µg/mL (≈ 0.259 µM); MFC [5]: 0.48 µg/mL (≈ 0.518 µM); MFC/MIC [5]: 2; MIC [5]: 0.24 µg/mL (≈ 0.259 µM)
